# From US9751826B2, “4-vinyl-2-cyclopenten-1-one derivatives, the production thereof, and the use of same as an antibiotic agent” (Centre National de la Recherche Scientifique (CNRS), priority 2014, dated 2017)
# Columns and labels:
# Type in all cases: cell-based
# [1] = tested on: Enterobacter cloacae (ATCC 13047); assay: Antibiotic test, inhibition zone technique
# Description: (§1) Once purified, the molecule of the compound of formula (Ia) is redissolved in suitable solvents and at a suitable concentration, preferentially in dimethyl sulfoxide (DMSO) at a concentration of 10 mg/ml. This initial solution is then diluted according to the various biological tests to be performed. Two series of tests were carried out. The molecule of the compound of formula (Ia) was used in antibiotic tests, employing the inhibition zone technique, on various Gram-positive and Gram-negative bacteria, in the amount of 100 μg. In parallel, similar tests are carried out with control antibiotics in varying amounts depending on the antibiotic, either 10 μg or 30 μg.
# [2] = tested on: Klebsiella pneumoniae (ATCC 1001); assay: Antibiotic test, inhibition zone technique
# Description: as §1
# [3] = tested on: Escherichia coli (ATCC 25922); assay: Antibiotic test, inhibition zone technique
# Description: as §1
# [4] = tested on: Micrococcus luteus (ATCC 10240); assay: Antibiotic test, inhibition zone technique
# Description: as §1
# [5] = tested on: various target pathogenic microorganisms; assay: Antibiotic activity at 1 to 100 μg (FIG. 7); conditions: amounts of 1 to 100 μg
# Description: The molecule of the compound of formula (Ia) was used in antibiotic tests, employing the inhibition zone technique, on various Gram-positive and Gram-negative bacteria, in the amount of 100 μg. In parallel, similar tests are carried out with control antibiotics in varying amounts depending on the antibiotic, either 10 μg or 30 μg.
# FIG. 7 illustrates the antibiotic activity of the compound of formula (Ia) on various target pathogenic microorganisms in amounts of 1 to 100 μg in comparison with chloramphenicol and gentamycin at 30 μg and 10 μg, respectively. […] Indeed, inhibition by 1 μg of the compound of formula (Ia) is equivalent to that obtained with 30 μg of chloramphenicol. The same observations and conclusions can be made for all the strains that are sensitive to the compound of formula (Ia) as shown in FIG. 7.
# [6] = tested on: KB cancer cell line (carcinoma); assay: Cytotoxicity test on KB cancer cell line
# Description: (§2) Once purified, the molecule of the compound of formula (Ia) is redissolved in suitable solvents and at a suitable concentration, preferentially in dimethyl sulfoxide (DMSO) at a concentration of 10 mg/ml. This initial solution is then diluted according to the various biological tests to be performed. Two series of tests were carried out. Tests for cytotoxicity on a KB cancer cell line (carcinoma) and an equivalent line of non-cancerous MRC5 cells. The following table presents the percentage of inhibition of growth by the molecule of the compound of formula (Ia) at concentrations of 1 and 10 micromolar.
# [7] = tested on: MRC5 cells; assay: Cytotoxicity test on non-cancerous MRC5 cells
# Description: as §2
# [8] = tested on: Staphylococcus aureus (ATCC 25923); assay: Antibiotic test, inhibition zone technique
# Description: as §1
# [9] = tested on: Streptococcus pneumoniae (ATCC 49619); assay: Antibiotic test, inhibition zone technique
# Description: as §1
# [10] = tested on: Bacillus subtilis (ATCC 6633); assay: Antibiotic test, inhibition zone technique
# Description: as §1
# [11] = tested on: Acinetobacter baumannii (ATCC 19606); assay: Antibiotic test, inhibition zone technique
# Description: as §1
# [12] = tested on: Pseudomonas aeruginosa (ATCC 27853); assay: Antibiotic test, inhibition zone technique; conditions: 10 μg deposited
# Description: as §1
compound,measurement,setting,value
"O=C(N[C@H](CO)[C@H](O)c1ccc([N+](=O)[O-])cc1)C(Cl)Cl [Chloramphenicol, reference compound]",Inhibition zone by the reference antibiotics,[1]; 30 μg deposited,1.5 cm
same,Inhibition zone by the reference antibiotics,[2]; 30 μg deposited,2.5 cm
same,Inhibition zone by the reference antibiotics,[3]; 30 μg deposited,1.0 cm
same,Inhibition zone by the reference antibiotics,[4]; 30 μg deposited,3.2 cm
COC(=O)/C=C/[C@@]1(O)C=CC(=O)C1 [compound of formula (Ia)],dose dependence of antibiotic activity,[5],dose-dependent
same,cytotoxicity against tumor cells,[6]; 1 and 10 micromolar,no cytotoxicity is observed
same,inhibition at 10 µM,"[6]; Homo sapiens, KB cells, 10^−5 M, read-out: percentage of inhibition of growth",0%
same,inhibition at 1 µM,"[6]; Homo sapiens, KB cells, 10^−6 M, read-out: percentage of inhibition of growth",0%
same,cytotoxicity against healthy cells,[7]; 1 and 10 micromolar,no cytotoxicity is observed
same,inhibition at 10 µM,"[7]; Homo sapiens, 10^−5 M, read-out: percentage of inhibition of growth",2 ± 12%
same,inhibition at 1 µM,"[7]; Homo sapiens, 10^−6 M, read-out: percentage of inhibition of growth",1 ± 3%
same,Inhibition zone for 100 μg of the compound of formula (Ia),[8]; 100 μg deposited,3.0 cm
same,Inhibition zone for 100 μg of the compound of formula (Ia),[1]; 100 μg deposited,1.2 cm
same,Inhibition zone for 100 μg of the compound of formula (Ia),[9]; 100 μg deposited,2.0 cm
same,Inhibition zone for 100 μg of the compound of formula (Ia),[2]; 100 μg deposited,2.9 cm
same,Inhibition zone for 100 μg of the compound of formula (Ia),[3]; 100 μg deposited,2.7 cm
same,amount giving inhibition equivalent to that of 30 μg of chloramphenicol,[3]; FIG. 7,1 µg
same,antibiotic activity compared with chloramphenicol,"[3]; FIG. 7, 1 to 100 μg vs chloramphenicol 30 μg",much higher activity than that of chloramphenicol
same,Inhibition zone for 100 μg of the compound of formula (Ia),[4]; 100 μg deposited,3.2 cm
same,Inhibition zone for 100 μg of the compound of formula (Ia),[10]; 100 μg deposited,2.7 cm
same,Inhibition zone for 100 μg of the compound of formula (Ia),[11]; 100 μg deposited,3.2 cm
Gentamycin [reference compound],Inhibition zone by the reference antibiotics,[8]; 10 μg deposited,1.2 cm
same,Inhibition zone by the reference antibiotics,[10]; 10 μg deposited,1.2 cm
same,Inhibition zone by the reference antibiotics,[11]; 10 μg deposited,0.9 cm
same,Inhibition zone by the reference antibiotics,[12],1.3 cm
Penicillin [reference compound],Inhibition zone by the reference antibiotics,[9]; 30 μg deposited,3.5 cm
